According to paper PMC7729733, “Biological Properties of New Chiral 2-Methyl-5,6,7,8-tetrahydroquinolin-8-amine-based Compounds” (Molecules, 2020):

Columns and labels:
[1] = tested on: CEM (human T-lymphocyte cells); test: Cell growth assay, CEM cells; assay type: cell-based; conditions: racemic compounds, 72 h, Coulter counter
Description: (§1) HeLa (human cervix carcinoma) and CEM (human T-lymphoblast) were grown in Dulbecco’s modified Eagle’s medium (DMEM; Gibco, Carlsbad, CA, USA), supplemented with 0.01 M Hepes (Gibco) and 1 mM sodium pyruvate (Gibco) in a humidified 5% CO2 incubator at 37 °C. HMEC-1 (human microvascular endothelial cells) was maintained in Dulbecco’s modified Eagle’s medium (DMEM)/low glucose containing glutamine (2 mM). The media were supplemented with 10% fetal bovine serum (FBS, Gibco), penicillin ([…]), streptomycin ([…]), and amphotericin B ([…]). CEM cells were seeded in 96-well plates at 60,000 cells/well in the presence of different concentrations of the compounds, and allowed to proliferate for 72 h. HeLa cells were seeded in 96-well plates at 15,000 cells/well in the presence of different concentrations of the compounds. After 4 days of incubation, the cells were trypsinized and counted. HMEC-1 cells were seeded in 48-well plates at 20,000 cells/well. After 24 h, the compounds were added at different concentrations. The cells were allowed to proliferate for 4 days in the presence of the compounds, trypsinized, and counted. All cells were counted by means of a Coulter counter (Analis, Belgium).

[2] = tested on: HeLa (human cervix carcinoma cells); test: Cell growth assay, HeLa cells; assay type: cell-based; conditions: 96 h, racemic compounds, 4 days, Coulter counter
Description: as §1

[3] = tested on: HMEC-1 (human dermal microvascular endothelial cells); test: Cell growth assay, HMEC-1 cells; assay type: cell-based; conditions: HMEC-1, 96 h, racemic compounds, 4 days, Coulter counter
Description: as §1

[4] = tested on: HT-29 (colorectal adenocarcinoma); test: Cell growth assay (Trypan blue), HT-29 cells; assay type: cell-based, human; conditions: 72 h
Description: (§2) A2780 (human ovarian carcinoma) and HT-29 (human colorectal adenocarcinoma) were grown in RPMI 1640 (Sigma Chemical Co., St. Louis, MO, USA), and MSTO-211H (human biphasic mesothelioma) were grown in RPMI 1640 (Sigma Chemical Co.) supplemented with 2.38 g/L Hepes, 0.11 g/L pyruvate sodium, and 2.5 g/L glucose. Then, 1.5 g/L NaHCO3, 10% heat-inactivated fetal calf serum (Biowest), 100 U/mL penicillin, 100 μg/mL streptomycin, and 0.25 μg/mL amphotericin B (Sigma Chemical Co.) were added to the media. The cells were cultured at 37 °C in a moist atmosphere of 5% carbon dioxide in air. Cells (2.5–3 × 10^4) were seeded into each well of a 24-well cell culture plate. After incubation for 24 h, various concentrations of the test agents were added to the complete medium and incubated for a further 72 h. A Trypan blue assay was performed to determine cell viability. Cytotoxicity data were expressed as IC50 values, i.e., the concentration of the test compound able to induce a 50% reduction in cell number compared with control cultures.

[5] = tested on: A2780 (ovarian carcinoma); test: Cell growth assay (Trypan blue), A2780 cells; assay type: cell-based, human; conditions: 72 h, Trypan blue
Description: as §2

[6] = tested on: MSTO-211H (biphasic mesothelioma); test: Cell growth assay (Trypan blue), MSTO-211H cells; assay type: cell-based, human; conditions: for IC50: 72 h, Trypan blue
Description: as §2

[7] = target: quinone reductase 2 (QR2); design: method as in PMID 22716080, PMID 16765324; conditions: read-out: QR2 inhibitory activity IC50; cited from earlier work
[8] = Homo sapiens, HT-29, racemic compounds
[9] = Homo sapiens, A2780, 72 h, racemic compounds
[10] = Homo sapiens, MSTO-211H, racemic compounds
[11] = Homo sapiens, HT-29, pure enantiomers
[12] = Homo sapiens, A2780, 72 h, pure enantiomers
[13] = Homo sapiens, MSTO-211H, pure enantiomers

| SMILES | IC50 [1] [µM] | IC50 [2] [µM] | IC50 [3] [µM] | IC50 [4, 8] [µM] | IC50 [5, 9] [µM] | IC50 [6, 10] [µM] | melting point [°C] | IC50 [4, 11] [µM] | IC50 [5, 12] [µM] | IC50 [6, 13] [µM] | cytotoxic effect on MSTO-211H (in words) ([6]; pure enantiomers) | IC50 ([4]; pure enantiomers) [µM] | IC50 ([5]; pure enantiomers) [µM] | IC50 ([6]; pure enantiomers) [µM] | IC50 [7] [µM] |
| --- | --- | --- | --- | --- | --- | --- | --- | --- | --- | --- | --- | --- | --- | --- | --- |
| Cc1ccc(O)c(CNC2CCCc3ccc(C)nc32)c1 (racemic) [Compound 2b, 4-methyl-2-(((2-methyl-5,6,7,8-tetrahydroquinolin-8-yl)amino)methyl)phenol] | 23 ± 4 | 75 ± 11 | 60 ± 2 | 62 ± 8 | 25 ± 5 | 35 ± 10 | 89.5 to 90.8 |  |  |  |  |  |  |  |  |
| Cc1ccc2c(n1)C(/N=C/c1ccccn1)CCC2 (racemic) [Compound 3a, (E)-N-(2-methyl-5,6,7,8-tetrahydroquinolin-8-yl)-1-(pyridin-2-yl)methanimine] | 33 ± 7 | 34 ± 6 | 77 ± 32 | 42 ± 6 | 16 ± 2 | 30 ± 8 | 102.8 to 104.3 |  |  |  |  |  |  |  |  |
| Cc1ccc2c(n1)C(/N=C/c1ncc[nH]1)CCC2 (racemic) [Compound 5a, (E)-1-(1H-imidazol-2-yl)-N-(2-methyl-5,6,7,8-tetrahydroquinolin-8-yl)methanimine] | 43 ± 7 | 37 ± 9 | 57 ± 4 | 70 ± 2 | 13 ± 3 | 31 ± 7 | 101.2 to 102.6 |  |  |  |  |  |  |  |  |
| Cc1ccc(O)c(CN[C@@H]2CCCc3ccc(C)nc32)c1 [(R)-2b, 4-methyl-2-(((2-methyl-5,6,7,8-tetrahydroquinolin-8-yl)amino)methyl)phenol] |  |  |  |  |  |  |  | > 20 | 15.2 ± 2.3 | > 20 | inactive |  |  |  |  |
| Cc1ccc2c(n1)[C@H](/N=C/c1ccccn1)CCC2 [(R)-3a, (E)-N-(2-methyl-5,6,7,8-tetrahydroquinolin-8-yl)-1-(pyridin-2-yl)methanimine] |  |  |  |  |  |  |  | > 20 | 11.7 ± 2 | 14.9 ± 1.4 |  |  |  |  |  |
| Cc1ccc(O)c(CN[C@H]2CCCc3ccc(C)nc32)c1 [(S)-2b, 4-methyl-2-(((2-methyl-5,6,7,8-tetrahydroquinolin-8-yl)amino)methyl)phenol] |  |  |  |  |  |  |  |  |  |  | inactive | > 20 | 11.5 ± 2.6 | > 20 |  |
| Cc1ccc2c(n1)[C@@H](/N=C/c1ccccn1)CCC2 [(S)-3a, (E)-N-(2-methyl-5,6,7,8-tetrahydroquinolin-8-yl)-1-(pyridin-2-yl)methanimine] |  |  |  |  |  |  |  |  |  |  |  | > 20 | 11.4 ± 0.4 | 11.8 ± 2.3 |  |
| Cc1ccc2c(n1)[C@@H](/N=C/c1ncc[nH]1)CCC2 [(S)-5a, (E)-1-(1H-imidazol-2-yl)-N-(2-methyl-5,6,7,8-tetrahydroquinolin-8-yl)methanimine] |  |  |  |  |  |  |  |  |  |  | ineffective | > 20 | 17.2 ± 3 | > 20 |  |
| Cc1ccc2c(n1)C(/N=C/c1cccc(C)c1O)CCC2 (centres unmarked) [Compound 1a, (E)-2-methyl-6-(((2-methyl-5,6,7,8-tetrahydroquinolin-8-yl)imino)methyl)phenol] | > 100 | > 100 | > 100 | 83 ± 5 | 65 ± 9 | 69 ± 3 | 102.2 to 103.8 |  |  |  |  |  |  |  |  |
| Cc1ccc2c(n1)C(NCc1cccc(C)c1O)CCC2 (centres unmarked) [Compound 1b, 2-methyl-6-(((2-methyl-5,6,7,8-tetrahydroquinolin-8-yl)amino)methyl)phenol] | 66 ± 47 | 93 ± 10 | 63 ± 2 | 57 ± 6 | 42 ± 5 | 28 ± 4 | 89.2 to 91.1 |  |  |  |  |  |  |  |  |
| Cc1ccc(O)c(/C=N/C2CCCc3ccc(C)nc32)c1 (centres unmarked) [Compound 2a, (E)-4-methyl-2-(((2-methyl-5,6,7,8-tetrahydroquinolin-8-yl)imino)methyl)phenol] | > 100 | > 100 | > 100 | > 100 | > 100 | 95 ± 5 | 101.8 to 103.4 |  |  |  |  |  |  |  |  |
| Cc1ccc2c(n1)C(NCc1ccccn1)CCC2 (centres unmarked) [Compound 3b, 2-methyl-N-(pyridin-2-ylmethyl)-5,6,7,8-tetrahydroquinolin-8-amine] | > 100 | > 100 | > 100 | 42 ± 6 | 11 ± 3 | 15 ± 3 | 87.8 to 89.2 |  |  |  |  |  |  |  |  |
| CN1C(=O)c2cc(C(N)=O)nc3c(N)c(Cl)c(N)c1c23 [Compound 4, ammosamide B] |  |  |  |  |  |  |  |  |  |  |  |  |  |  | 0.061 |
| Cc1ccc2c(n1)C(/N=C/c1cn(C)cn1)CCC2 (centres unmarked) [Compound 4a, (E)-1-(1-methyl-1H-imidazol-4-yl)-N-(2-methyl-5,6,7,8-tetrahydroquinolin-8-yl)methanimine] | > 100 | > 100 | > 100 | 42 ± 8 | 11 ± 2 | 14 ± 1 | 103.2 to 104.5 |  |  |  |  |  |  |  |  |
| Cc1ccc2c(n1)C(NCc1cn(C)cn1)CCC2 (centres unmarked) [Compound 4b, 2-methyl-N-((1-methyl-1H-imidazol-4-yl)methyl)-5,6,7,8-tetrahydroquinolin-8-amine] | > 100 | > 100 | 89 ± 2 | > 100 | > 100 | > 100 | 90.3 to 92.2 |  |  |  |  |  |  |  |  |
| CNc1c(Cl)c(N)c2c3c(cc(C(N)=O)nc13)C(=O)N2C [Compound 5] |  |  |  |  |  |  |  |  |  |  |  |  |  |  | 0.0041 |
| Cc1ccc2c(n1)C(NCc1ncc[nH]1)CCC2 (centres unmarked) [Compound 5b, N-((1H-imidazol-2-yl)methyl)-2-methyl-5,6,7,8-tetrahydroquinolin-8-amine] | 51 ± 13 | 71 ± 3 | 53 | 73 ± 6 | 38 ± 7 | 44 ± 5 | 86.7 to 88.1 |  |  |  |  |  |  |  |  |
| Cc1ccc2c(n1)C(/N=C/c1cc3c4c(c1O)CCCN4CCC3)CCC2 (centres unmarked) [Compound 6a, (E)-9-(((2-methyl-5,6,7,8-tetrahydroquinolin-8-yl)imino)methyl)-2,3,6,7-tetrahydro-1H,5H-pyrido [3,2,1-ij]quinolin-8-ol] | 64 ± 32 | > 100 | 82 ± 4 | 46 ± 7 | 36 ± 4 | 25 ± 11 | 104.2 to 105.8 |  |  |  |  |  |  |  |  |
| Cc1ccc2c(n1)C(NCc1cc3c4c(c1O)CCCN4CCC3)CCC2 (centres unmarked) [Compound 6b, 9-(((2-methyl-5,6,7,8-tetrahydroquinolin-8-yl)amino)methyl)-2,3,6,7-tetrahydro-1H,5H-pyrido[3 ,2,1-ij]quinolin-8-ol] | 77 ± 32 | > 100 | 81 ± 26 | 74 ± 3 | 36 ± 4 | 77 ± 7 | 94.3 to 95.5 |  |  |  |  |  |  |  |  |
